Experimental data reported in PubChem BioAssay AID1963875 (Molecular Pharmacology Branch, DTP, NCI, 2024).

System: KRAS-mutant PDC complex spheroid viability
Assay: Anticancer human tumor 186277-243-T-J2-PDC patient-derived colon adenocarcinoma cell line growth inhibition [KRAS2]
Conditions: for IC50: curve of first compound; for viability, T/C: stronger effect = lower value
In short: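 Combination screen of spheroid viability in tumor-cell co-cultures with endothelial (HUVEC) and mesenchymal stem cell stroma. Each agent was tested in half-log dilutions, topping at clinical Cmax or at 10 microM without a known Cmax.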

[1] = second compound 0.1 µM, first compound 0.0316 µM
[2] = second compound 0.316 µM, first compound 0.0316 µM
[3] = second compound 1 µM, first compound 0.0316 µM
[4] = second compound 3.16 µM, first compound 0.0316 µM
[5] = second compound 10 µM, first compound 0.0316 µM
[6] = second compound 0.1 µM, first compound 0.1 µM
[7] = second compound 0.1 µM, first compound 0.316 µM
[8] = second compound 0.1 µM, first compound 1 µM
[9] = second compound 0.1 µM, first compound 3.16 µM
[10] = second compound 0.1 µM, first compound 10 µM
[11] = second compound 0.316 µM, first compound 0.1 µM
[12] = second compound 0.316 µM, first compound 0.316 µM
[13] = second compound 0.316 µM, first compound 1 µM
[14] = second compound 0.316 µM, first compound 3.16 µM
[15] = second compound 0.316 µM, first compound 10 µM
[16] = second compound 1 µM, first compound 0.1 µM
[17] = second compound 1 µM, first compound 0.316 µM
[18] = second compound 1 µM, first compound 1 µM
[19] = second compound 1 µM, first compound 3.16 µM
[20] = second compound 1 µM, first compound 10 µM
[21] = second compound 3.16 µM, first compound 0.1 µM
[22] = second compound 3.16 µM, first compound 0.316 µM
[23] = second compound 3.16 µM, first compound 1 µM
[24] = second compound 3.16 µM, first compound 3.16 µM
[25] = second compound 3.16 µM, first compound 10 µM
[26] = second compound 10 µM, first compound 0.1 µM
[27] = second compound 10 µM, first compound 0.316 µM
[28] = second compound 10 µM, first compound 1 µM
[29] = second compound 10 µM, first compound 3.16 µM
[30] = second compound 10 µM, first compound 10 µM
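Throughout, for viability, T/C: viability read after seven days of compound exposure; 100% = DMSO vehicle-treated spheroids so lower means less viable.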

Q: What does the source list for `CC(=O)Nc1cccc(-n2c(=O)n(C3CC3)c(=O)c3c(Nc4ccc(I)cc4F)n(C)c(=O)c(C)c32)c1` + CNCc1ccccc1-c1csc(C(C)Nc2nc(C)nc3cc(OC)c(OC)cc23)c1?
A: IC50 (second compound 0.1 µM): 0.52 nM; IC50 (second compound 0.316 µM): 0.302 nM; IC50 (second compound 1 µM): 0.245 nM; IC50 (second compound 3.16 µM): < 0.1 nM; IC50 (second compound 10 µM): < 0.1 nM; viability, T/C (second compound 0.1 µM, first compound 0.0001 µM): 109%; viability, T/C (second compound 0.1 µM, first compound 0.000316 µM): 75.5%; viability, T/C (second compound 0.1 µM, first compound 0.001 µM): 16.4%; viability, T/C (second compound 0.1 µM, first compound 0.00316 µM): 4.46%; viability, T/C (second compound 0.1 µM, first compound 0.01 µM): 2.28%; viability, T/C [1]: 1.31%; viability, T/C (second compound 0.316 µM, first compound 0.0001 µM): 103%; viability, T/C (second compound 0.316 µM, first compound 0.000316 µM): 47.9%; viability, T/C (second compound 0.316 µM, first compound 0.001 µM): 10.8%; viability, T/C (second compound 0.316 µM, first compound 0.00316 µM): 3.37%; viability, T/C (second compound 0.316 µM, first compound 0.01 µM): 1.77%; viability, T/C [2]: 1.09%; viability, T/C (second compound 1 µM, first compound 0.0001 µM): 115%; viability, T/C (second compound 1 µM, first compound 0.000316 µM): 31.3%; viability, T/C (second compound 1 µM, first compound 0.001 µM): 6.94%; viability, T/C (second compound 1 µM, first compound 0.00316 µM): 1.83%; viability, T/C (second compound 1 µM, first compound 0.01 µM): 1.15%; viability, T/C [3]: 0.51%; viability, T/C (second compound 3.16 µM, first compound 0.0001 µM): 40.6%; viability, T/C (second compound 3.16 µM, first compound 0.000316 µM): 0.37%; viability, T/C (second compound 3.16 µM, first compound 0.001 µM): 0.04%; viability, T/C (second compound 3.16 µM, first compound 0.00316 µM): 0.02%; viability, T/C (second compound 3.16 µM, first compound 0.01 µM): 0.02%; viability, T/C [4]: 0.11%; viability, T/C (second compound 10 µM, first compound 0.0001 µM): 0.14%; viability, T/C (second compound 10 µM, first compound 0.000316 µM): 0.11%; viability, T/C (second compound 10 µM, first compound 0.001 µM): 0.1%; viability, T/C (second compound 10 µM, first compound 0.00316 µM): 0.1%; viability, T/C (second compound 10 µM, first compound 0.01 µM): 0.11%; viability, T/C [5]: 0.18%

Q: `COC(=O)c1ccc2c(C(=Nc3ccc(N(C)C(=O)CN4CCN(C)CC4)cc3)c3ccccc3)c(O)[nH]c2c1` + CNCc1ccccc1-c1csc(C(C)Nc2nc(C)nc3cc(OC)c(OC)cc23)c1 was tested. Which IC50 (second compound 0.1 µM) did it give?
A: 1840 nM

Q: And the IC50 (second compound 0.316 µM)?
A: 1140 nM

Q: What about the IC50 (second compound 1 µM) of the same compound?
A: 727 nM

Q: And the IC50 (second compound 3.16 µM)?
A: < 31.6 nM

Q: And the IC50 (second compound 10 µM)?
A: < 31.6 nM

Q: What about the viability, T/C [1] of the same compound?
A: 97.4%

Q: And the viability, T/C [6]?
A: 94.1%

Q: What about the viability, T/C [7] of the same compound?
A: 120%

Q: And the viability, T/C [8]?
A: 92.6%

Q: And the viability, T/C [9]?
A: 12.3%

Q: What about the viability, T/C [10] of the same compound?
A: 6.55%

Q: What about the viability, T/C [2] of the same compound?
A: 101%

Q: And the viability, T/C [11]?
A: 102%

Q: And the viability, T/C [12]?
A: 105%

Q: And the viability, T/C [13]?
A: 56.5%

Q: What about the viability, T/C [14] of the same compound?
A: 0.86%

Q: What about the viability, T/C [15] of the same compound?
A: 1.8%

Q: What about the viability, T/C [3] of the same compound?
A: 104%

Q: What about the viability, T/C [16] of the same compound?
A: 109%

Q: And the viability, T/C [17]?
A: 101%

Q: What about the viability, T/C [18] of the same compound?
A: 30.5%

Q: What about the viability, T/C [19] of the same compound?
A: 0.19%

Q: And the viability, T/C [20]?
A: 0.16%

Q: And the viability, T/C [4]?
A: 25.5%

Q: And the viability, T/C [21]?
A: 20.5%

Q: What about the viability, T/C [22] of the same compound?
A: 0.12%

Q: And the viability, T/C [23]?
A: 0.06%

Q: What about the viability, T/C [24] of the same compound?
A: 0.03%

Q: What about the viability, T/C [25] of the same compound?
A: 0.1%

Q: What about the viability, T/C [5] of the same compound?
A: 0.13%

Q: What about the viability, T/C [26] of the same compound?
A: 0.12%

Q: What about the viability, T/C [27] of the same compound?
A: 0.1%

Q: What about the viability, T/C [28] of the same compound?
A: 0.08%

Q: And the viability, T/C [29]?
A: 0.09%

Q: What about the viability, T/C [30] of the same compound?
A: 0.14%

Q: With `COc1cc(Nc2ncc3c(n2)-c2ccc(Cl)cc2C(c2c(F)cccc2OC)=NC3)ccc1C(=O)O` + CNCc1ccccc1-c1csc(C(C)Nc2nc(C)nc3cc(OC)c(OC)cc23)c1 as the compound, how does the IC50 (second compound 0.1 µM) read?
A: < 31.6 nM

Q: And the IC50 (second compound 0.316 µM)?
A: < 31.6 nM

Q: And the IC50 (second compound 1 µM)?
A: < 31.6 nM

Q: What about the IC50 (second compound 3.16 µM) of the same compound?
A: < 31.6 nM

Q: What about the IC50 (second compound 10 µM) of the same compound?
A: < 31.6 nM

Q: And the viability, T/C [1]?
A: 35.7%

Q: What about the viability, T/C [6] of the same compound?
A: 32.4%

Q: What about the viability, T/C [7] of the same compound?
A: 29.4%

Q: What about the viability, T/C [8] of the same compound?
A: 34.1%

Q: And the viability, T/C [9]?
A: 44.2%

Q: What about the viability, T/C [10] of the same compound?
A: 43.8%

Q: And the viability, T/C [2]?
A: 32.8%

Q: What about the viability, T/C [11] of the same compound?
A: 27.8%

Q: What about the viability, T/C [12] of the same compound?
A: 28.8%

Q: And the viability, T/C [13]?
A: 29.7%

Q: What about the viability, T/C [14] of the same compound?
A: 38.3%

Q: What about the viability, T/C [15] of the same compound?
A: 40.8%

Q: What about the viability, T/C [3] of the same compound?
A: 30.1%

Q: And the viability, T/C [16]?
A: 31.6%

Q: And the viability, T/C [17]?
A: 25.9%

Q: And the viability, T/C [18]?
A: 30.7%

Q: What about the viability, T/C [19] of the same compound?
A: 35%

Q: And the viability, T/C [20]?
A: 35.9%

Q: And the viability, T/C [4]?
A: 4.28%

Q: What about the viability, T/C [21] of the same compound?
A: 5.85%

Q: And the viability, T/C [22]?
A: 4.27%

Q: What about the viability, T/C [23] of the same compound?
A: 3.03%

Q: And the viability, T/C [24]?
A: 0.28%

Q: And the viability, T/C [25]?
A: 0.7%

Q: What about the viability, T/C [5] of the same compound?
A: 0.12%

Q: And the viability, T/C [26]?
A: 0.11%

Q: And the viability, T/C [27]?
A: 0.12%

Q: What about the viability, T/C [28] of the same compound?
A: 0.15%

Q: What about the viability, T/C [29] of the same compound?
A: 0.11%

Q: And the viability, T/C [30]?
A: 0.19%

Q: Which IC50 (second compound 0.1 µM) does the source give for `O=C(c1cc(Cc2n[nH]c(=O)c3ccccc23)ccc1F)N1CCN(C(=O)C2CC2)CC1` + CNCc1ccccc1-c1csc(C(C)Nc2nc(C)nc3cc(OC)c(OC)cc23)c1 here?
A: 6450 nM

Q: What about the IC50 (second compound 0.316 µM) of the same compound?
A: 6160 nM

Q: And the IC50 (second compound 1 µM)?
A: 5690 nM

Q: And the IC50 (second compound 3.16 µM)?
A: 639 nM

Q: What about the IC50 (second compound 10 µM) of the same compound?
A: < 31.6 nM

Q: And the viability, T/C [1]?
A: 110%

Q: And the viability, T/C [6]?
A: 101%

Q: What about the viability, T/C [7] of the same compound?
A: 95.6%

Q: What about the viability, T/C [8] of the same compound?
A: 114%

Q: And the viability, T/C [9]?
A: 78.6%

Q: What about the viability, T/C [10] of the same compound?
A: 32.4%

Q: What about the viability, T/C [2] of the same compound?
A: 107%

Q: What about the viability, T/C [11] of the same compound?
A: 102%

Q: What about the viability, T/C [12] of the same compound?
A: 111%

Q: And the viability, T/C [13]?
A: 106%

Q: What about the viability, T/C [14] of the same compound?
A: 73.8%

Q: What about the viability, T/C [15] of the same compound?
A: 32.7%

Q: What about the viability, T/C [3] of the same compound?
A: 104%

Q: What about the viability, T/C [16] of the same compound?
A: 97.2%

Q: And the viability, T/C [17]?
A: 108%

Q: What about the viability, T/C [18] of the same compound?
A: 104%

Q: And the viability, T/C [19]?
A: 66.9%

Q: What about the viability, T/C [20] of the same compound?
A: 33.8%

Q: What about the viability, T/C [4] of the same compound?
A: 94.8%

Q: And the viability, T/C [21]?
A: 107%

Q: And the viability, T/C [22]?
A: 94.1%

Q: And the viability, T/C [23]?
A: 16.2%

Q: What about the viability, T/C [24] of the same compound?
A: 45.6%

Q: What about the viability, T/C [25] of the same compound?
A: 3.95%

Q: And the viability, T/C [5]?
A: 0.19%

Q: What about the viability, T/C [26] of the same compound?
A: 0.21%

Q: What about the viability, T/C [27] of the same compound?
A: 0.19%

Q: And the viability, T/C [28]?
A: 0.14%

Q: What about the viability, T/C [29] of the same compound?
A: 0.14%

Q: What about the viability, T/C [30] of the same compound?
A: 0.19%
